Assays:
banana rooting plantlets = assay: CSF kill curves in banana rooting plantlets (in medium, spraying, both); type: in vivo
Procedure: The effect of CSF was also evaluated in rooting plantlets. Three methods were tested, (i) incorporation of CSF in the rooting medium (RM), (ii) spraying the plantlets with CSF solution and (iii) incorporation in the media of a lower concentration of CSF (0.5 mg/L) and spraying the plantlets (concurrently).
Six CSF concentrations, 0, 0.05, 0.5, 5, 50 and 100 mg/L, were tested in rooting plantlets.
Rooting banana plantlets were cleared of roots and split from the corm to have single shoots for testing with RM medium with or without CSF. Five to six shoots with similar morphology were inoculated into each phytotray.
For spraying tests, CSF solutions (concentrations above) were prepared in sterile deionised water or in 0.015% Silwett L-77. One mL of solution was sprayed onto each phytotray (five shoots per phytotray, so 1 mL between five shoots). For control conditions (Omg/L CSF), 1 mL of deionised water was used.
A range of CSF concentrations (0, 0.05, 0.5, 5, 50, 100 mg/L) were tested in banana rooting shoots. Banana shoots were separated from roots and split to give single shoots that were inoculated into new media to determine the effect of CSF over a month of exposure. To assess the effectiveness of CSF in banana three approaches were tested: (i) incorporation of the toxin in RM medium, (ii) spraying the shoots, and (iii) spraying the shoots plus incorporation of a small amount of CSF […] in RM.

ACO1, Ma01_g11540 = assay: Trait co-editing in selected embryos (PBE #3); type: cell-based, banana
Procedure: We transformed ECS as described previously in Example 6, using the new co-editing plasmids detailed in Table 11 above. Embryos were regenerated as detailed previously, either on media without selection, with 25 mg/L G418, 25 μg/L CSF or 50 μg/L CSF. Initial genotyping of all plasmids tested:
• All with CsVMV-rAPOBEC1 CBE (rAPOBEC+nCas9 (D10A) PBE from Zong et al. 2017*) and nosP-NptII • pMol_0925 (sgGFP-pNOS::Kan::tOCS-pCsVMV::nCas9PBE1::tg7-Dummy-pTaU6::sg1GFP_58-pTaU6::sg2GFP_59) • pMol_0934 (sgGFP, sgALS1-pNOS::Kan::tOCS-pCsVMV::nCas9PBE1::tg7-taU6::MaALS1sg2_2021-pTaU6::sg1GFP_58-pTaU6::sg2GFP_59) • pMol_0935 (sgGFP, sgALS2-pNOS::Kan::tOCS-pCsVMV::nCas9PBE1::tg7-taU6::MaALS2sg2_2023-pTaU6::sg1GFP_58-pTaU6::sg2GFP_59) • pMol_0926 (sgPPO2, sgALS1-pNOS::Kan::tOCS-pCsVMV::nCas9PBE1::tg7-taU6::MaALS1sg2_2021-pTaU6::sg1PPO2_2961-pTaU6::sg2PPO2_2962-pTaU6::sg3PPO2_2963) • pMol_0927 (sgPPO2, sgALS1-pNOS::Kan::tOCS-pCsVMV::nCas9PBE1::tg7-taU6::MaALS1sg2_2021-pTaU6::sg3PPO2_2963-pTaU6::sg4PPO2_2964) • pMol_0928 (sgACO1, sgALS1-pNOS::Kan::tOCS-pCsVMV::nCas9PBE1::tg7-taU6::MaALS1sg2_2021-pTaU6::sg1ACO1_2965-pTaU6::sg2ACO1_2966-pTaU6::sg3ACO1_2967) • pMol_0929 (sgPPO2, sgALS2-pNOS::Kan::tOCS-pCsVMV::nCas9PBE1::tg7-taU6::MaALS2sg2_2023-pTaU6::sg1PPO2_2961-pTaU6::sg2PPO2_2962-pTaU6::sg3PPO2_2963) • pMol_0930 (sgPPO2, sgALS2-pNOS::Kan::tOCS-pCsVMV::nCas9PBE1::tg7-taU6::MaALS2sg2_2023-pTaU6::sg3PPO2_2963-pTaU6::sg4PPO2_2964) • pMol_0931 (sgACO1, sgALS2-pNOS::Kan::tOCS-pCsVMV::nCas9PBE1::tg7-taU6::MaALS2sg2_2023-pTaU6::sg1ACO1_2965-pTaU6::sg2ACO1_2966-pTaU6::sg3ACO1_2967) ECS were left to ‘recover’ after transformation for 1 week in CS+cefo 300 mg/L. We regenerated embryos in 4 different conditions: • 1. No selection • 2. Stable G418 selection (in EDM only 2-3 months) from PBE #3 only (PBE #1/2 plasmids only have mCherry, not NptII) • 3. 25 μg/L chlorsulfuron (in EDM only 2-3 months) • 4. 50 μg/L chlorsulfuron (in EDM only 2-3 months)
gDNA from embryos and plantlets was extracted and qPCR was used to test for the presence of integrated tDNA in the plant genome. Three independent qPCRs were run on each sample with different sets of primers (listed below) spanning the tDNA, ranging from the left to right border. An additional qPCR was run on an endogenous banana gene (actin) for normalisation of Ct values. All qPCRs were run on the LightCycler® 96 System (Roche) using PowerUp™ SYBR® Green Master Mix (Thermo Fisher Scientific™).
For edit validation, amplicons for each target gene (als1, als2, ppo2, aco1) were made using Q5® High-Fidelity 2× Master Mix (New England Biolabs, NEB) using reaction settings listed below. PCR products were purified using Monarch® PCR & DNA Cleanup Kit (NEB) according to manufacturer's specifications. The amplicons were after validated by Sanger sequencing.

[1] = test system: banana embryos or leaf material; assay: Comparison of selection using ALS inhibitor, G418 or hygromycin (genotyping of embryos or leaf material); type: cell-based
Source text: In every case, regenerated material was transformed with constructs containing T-DNA that would generate resistance in positive transformants.

Rice protoplasts = details: for 10dd; cited from earlier work
[2] = test system: Marchantia polymorpha spores; details: (180 μg/L) for 7dd; cited from earlier work

SMILES: COc1nc(C)nc(NC(=O)NS(=O)(=O)c2ccccc2Cl)n1 [CSF, chlorsulfuron]
- Severity of symptoms (banana rooting plantlets; 0.05 mg/L CSF in the medium plus spraying with CSF): an increase in the severity of symptoms
- Root development (banana rooting plantlets; CSF in medium, even at 0.05 mg/L): root development was not observed
- Effective CSF concentration added to the medium (plantlets did not develop, chlorotic phenotype) (banana rooting plantlets; CSF incorporated in RM medium, repeated 3 times): 0.5 mg/L
- Lowest concentration that delayed shoot development (banana rooting plantlets; spraying banana shoots): 5 mg/L
- Shoot development (banana rooting plantlets; weekly spraying with 0.5 mg/L CSF): quite effective at delaying banana shoot development
- Percentage edited ACO1 embryos (ACO1, Ma01_g11540; 25CSF selection): 75
- ACO1 edited embryos total (ACO1, Ma01_g11540; 25CSF selection, 8 embryos tested): 6
- Percentage edited ACO1 embryos (ACO1, Ma01_g11540; 50CSF selection): 100
- ACO1 edited embryos total (ACO1, Ma01_g11540; 50CSF selection, 7 embryos tested): 7
- Editing frequency ([1]; CSF selected material): 90-94%
- Efficiency of generating transgenic lines of banana ([1]; CSF selection, embryos and shoots): 75-84%
- Editing frequency ([1]; Embryos, CSF selection): 57/63 = 90.5%
- Non-transgenic edited ([1]; Embryos, CSF selection): 19/584 = 3.2%
- Transgenic frequency ([1]; Embryos, CSF selection): 344/408 = 84.3%
- Editing frequency ([1]; Shoots, CSF selection): 34/36 = 94.4%
- Non-transgenic edited ([1]; Shoots, CSF selection): 3/46 = 6.5%
- Transgenic frequency ([1]; Shoots, CSF selection): 53/70 = 75.7%
- CSF concentration reported to be effective (Rice protoplasts): 3.6 µg/L
- CSF concentration reported to be effective [2]: 0.5 µM
